Data on two molecules can be found in patent US12595232B2, “DRG-MDM2-1 for use as a novel Mouse Double Minute 2 (MDM2) inhibitor” (BAHCESEHIR UNIVERSITESI, priority 2020, dated 2026).

One assay has as its system HCT-116 cells. Description: Microscopic evaluation of cells (proliferation, apoptotic morphology). It is filed as cell-based. Conditions: FIG. 3. The method, then:
Cells were photographed and observed under microscope for three days.
As a result, cell viability decreased by 40% at the end of the first day and reached 60% at the end of the third day. Any cell proliferation change and apoptotic cell morphology were not observed in the untreated and vehicle groups. Moreover, differences in cell morphology were also observed. […] Upon treatment with the compound of formula I according to present invention with 100 μM concentration, cells having the morphology of apoptotic cells were observed starting from the 3rd hour.

In assay [1] the test system is HCT 116 colon cancer and MDA-MB231 breast cancer cell lines. Description: MTT cell proliferation assay (time course). The class given is cell-based. The settings on record: for cytotoxicity at 100 µM: read-out: cell viability decrease. As for the experimental part: (§1) HCT 116 colon cancer and MDA-MB231 breast cancer cell lines are used in cell culture experiments.
(§2) Cells were treated with high-glucose DMEM medium (Biosera) supplemented with 10% FBS (Gibco) and 1× penicillin/streptomycin (Multicell). The assay was designed to contain 10,000 cells for each well of 24-well cell culture plates before being treated with inhibitors.
(§3) Compound of formula I was dissolved with DMSO as 20 mM stock. 24 hours later, the solution was diluted in DMEM with 10% FBS and final concentration of vehicle DMSO was 0.5% at maximum. Therefore, the vehicle group included 0.5% DMSO concentration in experiments. Intensive cultivation of cells causes a decrease in proliferation capacity.
For proliferation inhibition analysis, cells were seeded in 24 well plates at 1×10^4 cells/well cells overnight without drug treatment. During the cell proliferation experiments, we performed five days of treatment in each cell line and repeated the experiments three times to check each experiment. No significant difference in cell viability was observed after the third day. Therefore, cells with different drug concentrations were treated for two days. After 48 hours, MTT was applied to the cells and incubated at 37° C. for 4 hours, formazan was solubilized with DMSO (Sigma-Aldrich, St. Louis, USA) and absorbance was measured at 570 nm.
Molecule concentration was 100 μM, the lower concentrations were not shown. Vehicle represents the groups treated with only %0.5 DMSO and Untreated represents no molecule treated group. Molecule responses were evaluated by cell viability which is obtained by spectrophotometric analysis of cells upon MTT treatment at 12 h, 24 h, 48 h and 72 h. […] Statistical significance in graphs was determined by comparing each treatment group with DMSO control using ANOVA testing and significance is considered as p<0.001 (FIG. 2).
Background: Formazan colour is commonly taken as a measure of viable cells.

The next assay has as its system MDA-MB231 cell lines. Description: MTT cell viability assay (IC50). The class given is cell-based. The settings on record: Homo sapiens, MDA-MB-231, single dose of treatment, 10^−9 to 10^−4 M, 570 nm absorbance, FIG. 1, read-out: IC50 (half-maximal inhibitory concentration), MTT cell viability. The method, then:
as §1, §2, §3
The MTT cell viability assay was used to detect values of half-maximal inhibitory concentration (IC50). Different concentrations of compound of formula I ranging between 10^−9 to 10^−4 M were tested on MDA-MB231 cell lines with single dose of treatment. 570 nm absorbance values were recorded and IC50 values were calculated by dose response—inhibition curves and nonlinear regression analysis on Graphpad Prism 8 software.

The next assay has as its target MDM2 protein (Homo sapiens, UniProt Q00987). Conditions: versus a natural p53 peptide; cited from earlier work.

Like-named read-outs stand apart in the source and are kept apart here.

MDM2 protein, sequence (Q00987 whole entry, species assumed): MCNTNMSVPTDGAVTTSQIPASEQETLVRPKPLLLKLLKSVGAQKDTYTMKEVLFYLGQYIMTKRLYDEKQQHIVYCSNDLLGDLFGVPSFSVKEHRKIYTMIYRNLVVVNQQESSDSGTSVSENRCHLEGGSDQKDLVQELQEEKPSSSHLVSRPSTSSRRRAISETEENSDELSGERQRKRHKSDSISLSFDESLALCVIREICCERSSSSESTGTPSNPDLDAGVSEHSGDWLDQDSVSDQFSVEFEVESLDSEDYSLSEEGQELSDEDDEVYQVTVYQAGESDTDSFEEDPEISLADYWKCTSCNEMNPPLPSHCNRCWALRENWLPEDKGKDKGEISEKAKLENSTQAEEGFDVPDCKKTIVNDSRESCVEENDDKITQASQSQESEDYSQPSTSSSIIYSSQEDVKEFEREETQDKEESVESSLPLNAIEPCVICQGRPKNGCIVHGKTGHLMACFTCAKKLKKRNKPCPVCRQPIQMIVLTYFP

As for `O=C(O)CC(NC(=O)Cc1c[nH]c2ccccc12)c1ccc(F)cc1` (centres unmarked) [compound of formula I], in the assay with HCT-116 cells (100 μM concentration), the “time from which cells having the morphology of apoptotic cells were observed” value was 3 hour. The “apoptotic activity under microscope” value with HCT-116 cells (HCT-116) is recorded as “clear apoptotic activity from the twelfth hour”. Moreover, in the assay with HCT-116 cells (HCT-116, observed for three days, versus vehicle and untreated), the proliferation under microscope result is listed as “reduced proliferation”. Also, the “cell viability compared to vehicle and untreated groups” value in assay [1] (100 μM, MTT at 12 h, 24 h, 48 h and 72 h, ANOVA, p<0.001, FIG. 2) is given as “statistically significant difference”. Further, the results for the cytotoxicity at 100 µM in assay [1] (end of the first day) and in assay [1] (end of the third day) were 40% and 60%, respectively. In the assay with MDA-MB231 cell lines, the IC50 is 77 µM.

MI-319: on MDM2 protein, the “binding affinity to MDM2 relative to natural p53 peptide” value is 500 fold.
